Our source for the IC50 and EC50 values is patent US20250206738A1, “WRN INHIBITORS” (Nimbus Wadjet, Inc., priority 2023, published 2025).

For assay [1], the target named is T1, human Werner helicase (WRN, Uniprot Q14191, amino acids 517-1235 with L1074F point mutation; WRN-BV08) (Homo sapiens, UniProt Q14191, L1074F).
T1 construct: Uniprot Q14191, amino acids 517-1235 with L1074F point mutation; 8xHis (C, cleaved yes); TEV cleavage site (ENLYFQG) (C, cleaved yes); made in house; host or cells: Sf9 insect cells (baculovirus, pFastBac)
T1 sequence (Q14191 with tags, fused parts or gaps L1074F): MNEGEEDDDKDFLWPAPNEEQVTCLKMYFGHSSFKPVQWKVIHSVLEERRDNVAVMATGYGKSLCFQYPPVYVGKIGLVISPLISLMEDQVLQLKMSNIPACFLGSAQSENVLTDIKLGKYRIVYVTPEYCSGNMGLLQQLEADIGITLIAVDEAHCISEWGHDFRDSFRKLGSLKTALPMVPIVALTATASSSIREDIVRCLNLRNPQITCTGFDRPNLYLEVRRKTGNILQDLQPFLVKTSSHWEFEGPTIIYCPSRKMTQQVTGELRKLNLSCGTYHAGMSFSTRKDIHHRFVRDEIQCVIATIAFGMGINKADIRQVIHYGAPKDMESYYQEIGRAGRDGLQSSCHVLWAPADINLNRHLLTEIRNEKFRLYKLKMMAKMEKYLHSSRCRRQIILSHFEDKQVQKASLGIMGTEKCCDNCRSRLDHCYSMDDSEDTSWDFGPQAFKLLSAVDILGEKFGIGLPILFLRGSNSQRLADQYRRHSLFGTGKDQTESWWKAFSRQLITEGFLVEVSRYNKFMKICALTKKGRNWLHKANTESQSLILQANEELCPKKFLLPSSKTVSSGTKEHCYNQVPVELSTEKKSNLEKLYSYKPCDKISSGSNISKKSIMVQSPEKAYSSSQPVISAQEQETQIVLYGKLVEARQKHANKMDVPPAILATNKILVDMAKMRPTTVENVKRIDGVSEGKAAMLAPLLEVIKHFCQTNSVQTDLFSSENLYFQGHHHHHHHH
Nature of the assay: WRN (BV08) ADP-Glo assay. The class given is biochemical. The following applies: WRN-BV08 (aa 517-1235, L1074F); read-out: ADP-Glo_hWRN_IC50. The gist of the method:
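WRN 517-1235 (L1074F, untagged, Sf9-expressed), 0.15 nM, preincubated with compound 15 min at 25 °C, then 60 min with […] and 0.1 nM DNA duplex in Bicine pH 7.5, 1 mM MgCl2, 1% DMSO. ADP-Glo luminescence; % inhibition vs NSC-617145 control, four-parameter IC50 fit.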
A general note: ADP-Glo first removes unused ATP, then detects ADP through luciferase.

For assay [2], the system named is p21 induction in HCT 116 cells. The experiment in a line: p21 induction in cells (In-Cell Western, p21/GAPDH ratio). The class given is cell-based. The following applies: Homo sapiens, HCT-116, 24 h, 24 h compound incubation, read-out: P21_EC50. The method, then:
Example 3: Method for Determining Effect on p21 Induction in Cells
The colon carcinoma cell line HCT 116 was obtained from ATCC and cultured in growth medium consisting of Mccoy's 5A Medium (Gibco 16600108) supplemented with 10% FBS (Transgene FS201-02) and 100 units/mL penicillin-streptomycin (Gibco 15140122) and maintained at 37° C. under 5% CO2. On the day of seeding, 2,000 cells in 30 μL of culture media were plated per well to Poly-D-Lysine 384 Well Black Clear Plates (Biocoat 356663) and incubated overnight at 37° C. under 5% CO2. The following day, compounds were serially diluted in DMSO for a total of 11 test concentrations. The typical starting concentration of compounds was 10 μM with 2-fold dilutions. Next, 150 nL of diluted compound was added in duplicate to the assay plate, using an Echo 655 (Labcyte). The plate was centrifuged at 500 RPM for 1 min and then incubated at 37° C. under 5% CO2 for 24 h. After 24h, medium was removed, and cells were fixed by adding 40 μL of 4% paraformaldehyde solution to each well and incubated for 20 min at room temperature. The plate was then washed 4 times with 100 μL per well of wash buffer (PBS with 0.1% Tween-20) using a microplate washer. Next, 30 μL of ice-cold methanol was added to each well and the plate was incubated at −20° C. for 10 min. The plate was washed 4 times with 100 μL per well of wash buffer by a microplate washer, then 30 μL per well of blocking buffer (Intercept PBS blocking buffer (LI-COR 927-70001) with 0.05% Tween-20) was added and the plate was incubated at room temperature with shaking for 2h. Next, to each test well, 20 μL of primary antibody solution (p21 Waf1/CIP (12D1) RabbitmAb (Cell Signaling Technologies 2947) diluted 1:1000 and GAPDH (D4C6R) Mouse mAb (Cell Signaling Technologies 97166) diluted 1:2000 in blocking buffer) was added and the plate was placed at 4° C., overnight. The following day, the plate was washed 5 times with 100 μL per well of wash buffer using a microplate washer for 5 min. 20 μL per well of secondary antibody (IRDye 680CW Goat anti-Mouse IgG (H+L) (LI-COR 926-68070) diluted 1: 2000 in Blocking Buffer and IRDye 800CW Goat anti-Rabbit IgG (H+L) (LI-COR 926-32211) diluted 1: 2000 in Blocking Buffer) was then added and the plate was stored for 2h in the dark at room temperature with shaking. The plate was then washed 4 times with 100 μL per well of wash buffer again using a microplate washer. Finally, the p21 signal and the GAPDH signal were quantified using a LI-COR Odyssey CLx Imager machine reading at 800 nm and 700 nm, respectively. Each plate contained DMSO control (low control) and an internal reference WRN inhibitor (high control) respectively. For quantitation, the 800 nm/700 nm ratio was calculated for each well to give fold p21 induction and then percent activation for each compound well was calculated as follows (100×(ratio cpd well−ratio low control)/(ratio high control−ratio low control)). EC50 values for each compound were generated after non-linear regression curve fitting using commercially available software.

Some results are limits rather than exact numbers.

For the molecule `CCc1c(N2CCN(C(=O)c3ncnc(C)c3O)CC2)c(=O)n2nc(C3=CCN(C(=O)COC)CC3)nc2n1CC(=O)NC12CC(C3CC3)(C1)C2` [I-18, N-(3-cyclopropylbicyclo[1.1.1]pentan-1-yl)-2-(5-ethyl-6-(4-(5-hydroxy-6-methylpyrimidine-4-carbonyl)piperazin-1-yl)-2-(1-(2-methoxyacetyl)-1,2,3,6-tetrahydropyridin-4-yl)-7-oxo-[1,2,4]triazolo[1,5-a]pyrimidin-4(7H)-yl)acetamide], in assay [1], the IC50 lay in the range of 5 to 50 nM. In assay [2], the EC50 is over 5000 nM.
On to `CCc1c(N2CCN(C(=O)c3ncc4c(c3O)CCO4)CC2)c(=O)n2nc(C3=CCOCC3)nc2n1CC(=O)NC12CC(CC)(C1)C2` [I-14, 2-(2-(3,6-dihydro-2H-pyran-4-yl)-5-ethyl-6-(4-(4-hydroxy-2,3-dihydrofuro[2,3-c]pyridine-5-carbonyl)piperazin-1-yl)-7-oxo-[1,2,4]triazolo[1,5-a]pyrimidin-4(7H)-yl)-N-(3-ethylbicyclo[1.1.1]pentan-1-yl)acetamide], for which the IC50 in assay [1] was in the range of 5 to 50 nM. Moreover, the EC50 in assay [2] fell in the range of 500 to 2000 nM.
For `CCc1c(N2CCN(C(=O)c3ncnc(C)c3O)CC2)c(=O)c2sc(-c3ccnc(OC)c3)nc2n1CC(=O)NC12CC(C(F)(F)F)(C1)C2` [I-25, 2-(5-ethyl-6-(4-(5-hydroxy-6-methylpyrimidine-4-carbonyl)piperazin-1-yl)-2-(2-methoxypyridin-4-yl)-7-oxothiazolo[4,5-b]pyridin-4(7H)-yl)-N-(3-(trifluoromethyl)bicyclo[1.1.1]pentan-1-yl)acetamide] the same measures were 5 to 50 nM and over 5000 nM.
As for `CCc1c(N2CCN(C(=O)c3ncc4c(c3O)CCO4)CC2)c(=O)n2nc(C3=CCOCC3)nc2n1CC(=O)NC12CC(C(C)C)(C1)C2` [I-15, 2-(2-(3,6-dihydro-2H-pyran-4-yl)-5-ethyl-6-(4-(4-hydroxy-2,3-dihydrofuro[2,3-c]pyridine-5-carbonyl)piperazin-1-yl)-7-oxo-[1,2,4]triazolo[1,5-a]pyrimidin-4(7H)-yl)-N-(3-isopropylbicyclo[1.1.1]pentan-1-yl)acetamide], the IC50 in assay [1] was 5 to 50 nM. For the same molecule, in assay [2], the EC50 is 500 to 2000 nM.
For `CCc1c(N2CCN(C(=O)c3c(OC)ncc(C)c3O)CC2)c(=O)n2nc(-c3ccnc(OC)c3)nc2n1CC(=O)NC12CC(C3CC3)(C1)C2` [I-39, N-(3-cyclopropylbicyclo[1.1.1]pentan-1-yl)-2-(5-ethyl-6-(4-(4-hydroxy-2-methoxy-5-methylnicotinoyl)piperazin-1-yl)-2-(2-methoxypyridin-4-yl)-7-oxo-[1,2,4]triazolo[1,5-a]pyrimidin-4(7H)-yl)acetamide] the same measures were 5 to 50 nM and at most 500 nM.
With `CCc1c(N2CCN(C(=O)c3c(O)ccc4ncoc34)CC2)c(=O)n2nc(-c3ccnc(OC)c3)nc2n1CC(=O)NC12CC(C3CC3)(C1)C2` [I-36, N-(3-cyclopropylbicyclo[1.1.1]pentan-1-yl)-2-(5-ethyl-6-(4-(6-hydroxybenzo[d]oxazole-7-carbonyl)piperazin-1-yl)-2-(2-methoxypyridin-4-yl)-7-oxo-[1,2,4]triazolo[1,5-a]pyrimidin-4(7H)-yl)acetamide], the IC50 in assay [1] is at most 5 nM. Further, the EC50 in assay [2] was at most 500 nM.
Consider `CCc1c(N2CCN(C(=O)c3ncnc(C)c3O)[C@H]3CC[C@@H]32)c(=O)c2nn(C3=CCOC(C)C3)nc2n1CC(=O)NC12CC(C3CC3)(C1)C2` (single isomer, unassigned) [I-169], for which the IC50 in assay [1] was 5 to 50 nM. In assay [2], the EC50 is at most 500 nM.
Take `CCc1c(N2CCN(C(=O)c3ncnc(C)c3O)[C@H]3CC[C@@H]32)c(=O)c2c(nnn2C2CC2)n1CC(=O)NC12CC(C3CC3)(C1)C2` [I-245, 2-(1-cyclopropyl-5-ethyl-6-((1S,6S)-5-(5-hydroxy-6-methylpyrimidine-4-carbonyl)-2,5-diazabicyclo[4.2.0]octan-2-yl)-7-oxo-1,7-dihydro-4H-[1,2,3]triazolo[4,5-b]pyridin-4-yl)-N-(3-cyclopropylbicyclo[1.1.1]pentan-1-yl)acetamide]: in assay [1], the IC50 was 100 to 500 nM. Also, the EC50 in assay [2] was in the range of 2000 to 5000 nM.
In the case of `CCc1c(N2CCN(C(=O)c3c(O)ccc4ncoc34)CC2)c(=O)n2nc(-c3ccnc(OC)c3)nc2n1CC(=O)NC12CC(CC)(C1)C2` [I-23, 2-(5-ethyl-6-(4-(6-hydroxybenzo[d]oxazole-7-carbonyl)piperazin-1-yl)-2-(2-methoxypyridin-4-yl)-7-oxo-[1,2,4]triazolo[1,5-a]pyrimidin-4(7H)-yl)-N-(3-ethylbicyclo[1.1.1]pentan-1-yl)acetamide], in assay [1], the IC50 was 5 to 50 nM. The EC50 in assay [2] was at most 500 nM.
Consider `CCc1c(N2CCN(C(=O)c3ncnc(C)c3O)CC2)c(=O)n2nc(N(C)C)nc2n1CC(=O)NC12CC(C(F)(F)F)(C1)C2` [I-33, 2-(2-(dimethylamino)-5-ethyl-6-(4-(5-hydroxy-6-methylpyrimidine-4-carbonyl)piperazin-1-yl)-7-oxo-[1,2,4]triazolo[1,5-a]pyrimidin-4(7H)-yl)-N-(3-(trifluoromethyl)bicyclo[1.1.1]pentan-1-yl)acetamide], for which, in assay [1], the IC50 lay within 100 to 500 nM. Besides, the EC50 in assay [2] was over 5000 nM.
Regarding `CCc1c(N2CCN(C(=O)c3c(O)ccc4ncoc34)CC2)c(=O)n2nc(-c3ccnc(OC)c3)nc2n1CC(=O)NC12CC(C(F)(F)F)(C1)C2` [I-10, 2-(5-ethyl-6-(4-(6-hydroxybenzo[d]oxazole-7-carbonyl)piperazin-1-yl)-2-(2-methoxypyridin-4-yl)-7-oxo-[1,2,4]triazolo[1,5-a]pyrimidin-4(7H)-yl)-N-(3-(trifluoromethyl)bicyclo[1.1.1]pentan-1-yl)acetamide], in assay [1], the IC50 was 5 to 50 nM. Moreover, the EC50 in assay [2] was at most 500 nM.
Take `CCc1c(N2CCN(C(=O)c3ncnc(C)c3O)[C@H]3CC[C@@H]32)c(=O)c2nc(N(C)C)cnc2n1CC(=O)NC12CC(OC(F)(F)F)(C1)C2` [I-237, 2-(2-(dimethylamino)-6-ethyl-7-((1S,6S)-5-(5-hydroxy-6-methylpyrimidine-4-carbonyl)-2,5-diazabicyclo[4.2.0]octan-2-yl)-8-oxopyrido[2,3-b]pyrazin-5(8H)-yl)-N-(3-(trifluoromethoxy)bicyclo[1.1.1]pentan-1-yl)acetamide]: the IC50 in assay [1] lay in the range of 5 to 50 nM. In addition, in assay [2], the EC50 fell in the range of 2000 to 5000 nM.
On the same counts, the results for `CCc1c(N2CCN(C(=O)c3c(O)ccc4ncoc34)[C@H]3CC[C@@H]32)c(=O)c2nc(N(C)C)cnc2n1CC(=O)NC12CC(C(C)C)(C1)C2` [I-218, 2-(2-(dimethylamino)-6-ethyl-7-((1S,6S)-5-(6-hydroxybenzo[d]oxazole-7-carbonyl)-2,5-diazabicyclo[4.2.0]octan-2-yl)-8-oxopyrido[2,3-b]pyrazin-5(8H)-yl)-N-(3-isopropylbicyclo[1.1.1]pentan-1-yl)acetamide] are 5 to 50 nM and 500 to 2000 nM.
`CCc1c(N2CCN(C(=O)c3c(O)ccc4ncoc34)CC2)c(=O)n2nc(-c3ccnc(OC)c3)nc2n1CC(=O)NC12CC(CCF)(C1)C2` [I-31, 2-(5-ethyl-6-(4-(6-hydroxybenzo[d]oxazole-7-carbonyl)piperazin-1-yl)-2-(2-methoxypyridin-4-yl)-7-oxo-[1,2,4]triazolo[1,5-a]pyrimidin-4(7H)-yl)-N-(3-(2-fluoroethyl)bicyclo[1.1.1]pentan-1-yl)acetamide]: the IC50 in assay [1] lay in the range of 5 to 50 nM. The EC50 in assay [2] was in the range of 500 to 2000 nM.
